Data taken from ChEMBL document CHEMBL4402605, “A Chemical Switch for Transforming a Purine Agonist for Toll-like Receptor 7 to a Clinically Relevant Antagonist” (J Med Chem, 2020).
Values after ≈ are worked out from the molar mass of the structure shown. Active and inactive are the calls of the source. No cut-off for these calls is given here.

Assays:
Mus musculus [1] = experiment: (§1) Protection against imiquimod-induced C57BL/6 mouse model of psoriasis assessed as suppression of microabscesses at 15 mg/kg, po administered via gavage treated 1 day prior to imiquimod application and subsequent daily dosing for 7 consecutive days and measured post-last dose by H and E staining based histopathological analysis; type: functional
Mus musculus [2] = experiment: Protection against imiquimod-induced C57BL/6 mouse model of psoriasis assessed as decrease in skin scaling at 15 mg/kg, po administered via gavage treated 1 day prior to imiquimod application and subsequent daily dosing for 7 consecutive days and measured post-last dose relative to control; type: functional; set-up: scale not given: the % may be the effect or the level left
[3] = Toxicity in C57BL/6 mouse assessed as glomerular hypertrophy at 15 mg/kg, po administered once daily via gavage for 7 consecutive days and measured post-last dose by H and E staining based histomorphological analysis; type: organism-based; conditions: in vivo
Mus musculus [4] = experiment: as §1, with “pustule formation” for “microabscesses”; type: functional
[5] = Toxicity in C57BL/6 mouse assessed as liver inflammation at 15 mg/kg, po administered once daily via gavage for 7 consecutive days and measured post-last dose by H and E staining based histomorphological analysis; type: organism-based; conditions: in vivo
[6] = Tmax in C57BL/6 mouse at 15 mg/kg, po administered via gavage by LC-MS/MS analysis; type: ADME, organism-based; conditions: in vivo
physchem = conditions: phosphate buffer, pH 7.4
Description: Aqueous solubility of the compound in pH 7.4 0.25 M phosphate buffer at 500 uM incubated for 18 hrs under stirred condition by UV-HPLC analysis

Mus musculus [7] = experiment: as §1, with “reduction in IFIT1 mRNA expression” for “suppression of microabscesses”, “SYBR green dye” for “H and E staining”, “qPCR” for “histopathological”; type: functional, organism-based
[8] = Clearance in mouse liver microsomes at 100 uM by LC-MS/MS analysis relative to hepatic blood flow
Mus musculus [9] = experiment: as §1, with “suprapapillary thinning” for “microabscesses”; type: functional
[10] = Cmax in C57BL/6 mouse at 15 mg/kg, po administered via gavage by LC-MS/MS analysis; type: ADME, organism-based; set-up: dose 15 mg/kg, route oral; conditions: in vivo
[11] = Clearance in human liver microsomes at 100 uM by LC-MS/MS analysis relative to hepatic blood flow
[12] = molecular target: T1, Toll-like receptor 7 (Homo sapiens) (UniProt Q9NYK1); experiment: Antagonist activity at human TLR7 expressed in HEK-Blue cells assessed as inhibition of CL264-induced IL-6 mRNA expression at 5 uM preincubated for 1 hr followed by CL264 stimulation and measured after 6 hrs by SYBR green dye based RT-PCR analysis relative to control; type: cell-based
T1 sequence (whole entry): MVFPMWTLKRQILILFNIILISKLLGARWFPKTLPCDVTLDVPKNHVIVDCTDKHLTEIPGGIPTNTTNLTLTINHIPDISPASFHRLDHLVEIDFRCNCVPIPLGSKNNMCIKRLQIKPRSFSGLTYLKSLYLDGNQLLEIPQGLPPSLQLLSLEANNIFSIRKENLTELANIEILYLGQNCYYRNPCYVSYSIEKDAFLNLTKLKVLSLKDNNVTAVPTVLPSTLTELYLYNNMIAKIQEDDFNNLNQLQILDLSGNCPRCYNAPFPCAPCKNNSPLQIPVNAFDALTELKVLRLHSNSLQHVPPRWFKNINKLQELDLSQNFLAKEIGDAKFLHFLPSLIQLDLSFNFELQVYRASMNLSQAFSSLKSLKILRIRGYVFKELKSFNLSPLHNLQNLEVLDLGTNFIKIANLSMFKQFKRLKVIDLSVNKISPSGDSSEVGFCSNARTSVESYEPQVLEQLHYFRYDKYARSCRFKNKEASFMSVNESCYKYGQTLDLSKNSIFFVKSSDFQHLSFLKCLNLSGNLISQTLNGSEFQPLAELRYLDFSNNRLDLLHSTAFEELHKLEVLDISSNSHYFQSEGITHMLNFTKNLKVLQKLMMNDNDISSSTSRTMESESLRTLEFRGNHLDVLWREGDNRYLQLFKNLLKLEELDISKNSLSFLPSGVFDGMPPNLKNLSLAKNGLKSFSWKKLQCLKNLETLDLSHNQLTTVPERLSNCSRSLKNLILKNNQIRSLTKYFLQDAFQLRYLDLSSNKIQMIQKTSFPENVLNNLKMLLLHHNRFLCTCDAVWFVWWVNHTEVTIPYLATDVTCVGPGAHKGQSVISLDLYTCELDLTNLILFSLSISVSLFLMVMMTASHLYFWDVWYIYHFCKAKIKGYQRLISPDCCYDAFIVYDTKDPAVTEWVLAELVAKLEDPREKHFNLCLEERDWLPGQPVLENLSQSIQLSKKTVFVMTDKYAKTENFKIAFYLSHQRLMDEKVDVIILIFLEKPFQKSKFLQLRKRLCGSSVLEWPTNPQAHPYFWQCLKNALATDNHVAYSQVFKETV

in vitro [13] = conditions: human, plasma
Description: Stability of the compound in human plasma assessed as parent compound remaining at 25 uM measured after 2 hrs by LC-MS/MS analysis

in vitro [14] = conditions: mouse, plasma
Description: Stability of the compound in mouse plasma assessed as parent compound remaining at 25 uM measured after 2 hrs by LC-MS/MS analysis

[15] = Oral bioavailability in C57BL/6 mouse at 15 mg/kg administered via gavage by LC-MS/MS analysis; type: ADME, organism-based; conditions: in vivo
Mus musculus [16] = experiment: as §1, with “acanthosis” for “microabscesses”; type: functional
Mus musculus [17] = experiment: as §1, with “papillomatosis” for “microabscesses”; type: functional
Mus musculus [18] = experiment: as §1, with “reduction in MX1 mRNA expression” for “suppression of microabscesses”, “SYBR green dye” for “H and E staining”, “qPCR” for “histopathological”; type: functional, organism-based
[19] = Half life in C57BL/6 mouse at 15 mg/kg, po administered via gavage by LC-MS/MS analysis; conditions: in vivo
[20] = Half life in human liver microsomes at 100 uM by LC-MS/MS analysis
[21] = Toxicity in C57BL/6 mouse assessed as change in lung microanatomy at 15 mg/kg, po administered once daily via gavage for 7 consecutive days and measured post-last dose by H and E staining based histomorphological analysis; type: organism-based; conditions: in vivo
Mus musculus [22] = experiment: as §1, with “reduction in TNFalpha mRNA expression” for “suppression of microabscesses”, “SYBR green dye” for “H and E staining”, “qPCR” for “histopathological”; type: functional, organism-based
Toll-like receptor 7 = molecular target: T2, Toll-like receptor 7 (Homo sapiens, UniProt Q9NYK1)
T2 sequence (Q9NYK1 whole entry): T1 sequence (whole entry)
Description: Antagonist activity at human TLR7 expressed in HEK-Blue cells assessed as inhibition of CL264-induced NFkappaB activation by measuring reduction in SEAP level after overnight incubation using qunati-blue reagent by SEAP reporter gene-based spectrophotometric method

[23] = Toxicity in C57BL/6 mouse assessed as inflammation of kidney at 15 mg/kg, po administered once daily via gavage for 7 consecutive days and measured post-last dose by H and E staining based histomorphological analysis; type: organism-based; conditions: in vivo
[24] = molecular target: T1, Toll-like receptor 7 (Homo sapiens); experiment: Antagonist activity at TLR7 in human PBMC assessed as inhibition of gardiquimod-induced TNFalpha production at 5 uM preincubated for 1 hr followed by gardiquimod stimulation and measured after overnight incubation by ELISA
[25] = Toxicity in C57BL/6 mouse assessed as change in hepatocyte survival at 15 mg/kg, po administered once daily via gavage for 7 consecutive days and measured post-last dose by H and E staining based histomorphological analysis; type: organism-based; conditions: in vivo

CCN1CCN(CCCn2cnc3c(N4CCN(CC)CC4)ncnc32)CC1
Activity (Mus musculus [1]): 100%
Activity (Mus musculus [2]): 100%
Activity [3]: Non-Toxic
Activity (Mus musculus [4]): 100%
Activity [5]: Non-Toxic
Tmax [6]: 2 h
solubility at 18 h, 500 µM (physchem): 200 µg/mL (≈ 518 µM)
Activity (Mus musculus [7]): Active
hepatic extraction ratio at 100 µM [8]: 0.144
Activity (Mus musculus [9]): 100%
Cmax [10]: 2600 ng/mL
hepatic extraction ratio at 100 µM [11]: 0.265
inhibition [12]: 42.9%
remaining at 2 h, 25 µM (in vitro [13]): 95%
remaining at 2 h, 25 µM (in vitro [14]): 99.2%
bioavailability [15]: 70.8%
Activity (Mus musculus [16]): 100%
Activity (Mus musculus [17]): 100%
Activity (Mus musculus [18]): Active
half-life [19]: 4.6 h
half-life at 100 µM [20]: 1.5 h
Activity [21]: Non-Toxic
Activity (Mus musculus [22]): Active
IC50 (Toll-like receptor 7): 4.7 µM
Activity [23]: Non-Toxic
inhibition [24]: Active
Activity [25]: Non-Toxic
